Assay results taken from patent publication US20220193060A1, “Inhibition of IL-1 Induced Inflammation” (THIOLAB, LLC., priority 2019, published 2022).
Entries after “also recorded” stand apart in the source; their conditions may differ.

Legend:
poison oak = assay: Case: topical CPDS for poison oak exposure; type: in vivo, human
Protocol: An individual was exposed to poison oak on their left arm through physical contact. They developed a rash and other symptoms of inflammation such as redness, itching, burning sensation, and swelling. The individual was treated using topical application a cream containing 1% CPDS by weight. The cream was applied every two hours on the first day, and thereafter two to three times a day. The cream contained water, mineral oil, stearic acid, triethanolamine, propylene glycol, glyceryl stearate, stearyl alcohol, dirnethicone, isopropyl palmitate, cetyl alcohol, lactic acid, retinyl acetate, tocopheryl acetate, hydrolyzed collagen, fragrance, methylparaben, and O&C red #33. The individual was treated alternatively with 1% CPDS by weight in an ointment containing white petroleum and mineral oil.

IP-10 = assay: LPS-stimulated RAW 264.7 cells, IP-10 secretion; type: cell-based; settings: murine RAW 264.7 cells, pre-treatment prior to LPS
Protocol: An in vitro model of inflammation mediated by macrophages is used. […] A murine macrophage cell line RAW264.7 (CCRL-2278) was also used. Macrophages are treated with CPDS. […] Then the effect of CPDS on inflammation is assessed by comparing the levels of anti-inflammatory mediators IL-6 and IL-10. IL-10 and IL-6 were determined by ELISA. The level of IL-6 and IL-10 were compared to the level prior to CPDS treatment. […] In addition we measured decrease in the secretion of IP-10.

IL-1β = IL-1β ELISA, PMA-treated THP-1 cells stimulated with IFNγ and LPS; type: cell-based, human; settings: for Ave IL-Ib 1/10 Avg / Ave IL-Ib 1/10 Rep 1 / Ave IL-Ib 1/10 Rep 2 / Ave IL-Ib 2/28 Rep 1 / Ave IL-Ib 2/28 Rep 2 / Ave IL-Ib 2/28 Rep 3 / IL-1β Relative %: THP-1
Protocol: Methodology: The study included replicated tests of IL-1β levels with and without CPDS, as well as reference testing of untreated cells and cells treated with lactoferrin and clobetasol. A third test was conducted of IL-1 receptor […] (IL-1RA) receptor, to assist in distinguishing whether reductions in IL-1β levels were associated with secretion or receptor blocking (via the receptor antagonist). Cell viability studies were conducted for both sets of tests. Each of the tests used an ELISA model with the following protocols. 1. THP-1 cells were grown in (RPMI+10% FBS, 10 mM HEPES, 1 mM Sodium Pyruvate, and 0.05 mM 2-Mecaptpethanol) to P8. 2. Cells were plated at 30,000 cells per well in 120 ul with Media+20 ng/ml PMA+2× Genta. 3. […] Cells were treated according to plan below. 5. Cells were incubated for three more days at 37° C. and 5% CO2. 6. Cell supernatant were collected and ELISA was measured for IL-1RA, IL-1α, and IL-1β. 7. Plate was read at 490 nm until O.D reached 1.5. Day 1—1. THP-1+20 ng/ml PMA 30,000 cells per well 120 uL Day 3—1. Add Compound at 4× in 60 uL. Incubate for 2 hours. CPDS—800 uM (200 uM Final), lactoferrin—800 ug/mL (200 ug/ml Final) clobetasol −40 ng/mL (10 ng/mL Final). 2. […] Add 30 uL LPS at 8×—20 ng/ml (2.5 ng/ml final) in 30 uL (Wells 2-10) 4. Incubate for 3 days. Day 6—1. Collect 80 ul of sample 2 times and freeze for ELISA. 2. Develop with 15 uL of Substrate and read at 490 nm until plate reaches 1.5 OD. THP-1 is a spontaneously immortalized monocyte-like cell line, derived from the peripheral blood of a childhood case of acute monocytic leukemia, which has been extensively used to study monocyte/macrophage functions, mechanisms, signaling pathways, and nutrient and drug transport. This cell line has become a common model to estimate modulation of monocyte and macrophage activities.

IL-6 = assay: LPS-stimulated macrophages, IL-6 ELISA; type: cell-based, murine
Protocol: An in vitro model of inflammation mediated by macrophages is used. Primary macrophages isolated from humans or non-human species (e.g., mice or rats) were used. A murine macrophage cell line RAW264.7 (CCRL-2278) was also used. Macrophages are treated with CPDS. […] Then the effect of CPDS on inflammation is assessed by comparing the levels of […] mediators IL-6 and IL-10. IL-10 and IL-6 were determined by ELISA. The level of IL-6 and IL-10 were compared to the level prior to CPDS treatment.

colonic polyps = assay: Case: oral CPDS for colonic polyps; type: in vivo, human; settings: person; oral 140 mg per day; 1, 3, 9, and 10 months
Protocol: An individual was diagnosed with colon neoplasia. About one month after the initial diagnosis, the individual underwent semi colotomy at which time about 45 cm of their colon was removed. […] The polyps were cauterized at that time. About one month later, the individual began treatment with CPDS which was administered orally at a dose of 140 mg per day.

[1] = CPDS 1.6 uM + 10 ng/ml IFNy + 2.5 ng/ml LPS
[2] = CPDS 3.1 uM + 10 ng/ml IFNy + 2.5 ng/ml LPS
[3] = CPDS 6.3 uM + 10 ng/ml IFNy + 2.5 ng/ml LPS
[4] = CPDS 12.5 uM + 10 ng/ml IFNy + 2.5 ng/ml LPS
[5] = CPDS 25.0 uM + 10 ng/ml IFNy + 2.5 ng/ml LPS
[6] = CPDS 50.0 uM + 10 ng/ml IFNy + 2.5 ng/ml LPS
[7] = CPDS 100.0 uM + 10 ng/ml IFNy + 2.5 ng/ml LPS
[8] = CPDS 200.0 uM + 10 ng/ml IFNy + 2.5 ng/ml LPS

With `O=C(O)c1ccc(SSc2ccc(C(=O)O)cn2)nc1` [CPDS, 6,6′-dithiodinicotinic acid] the itching and burning (poison oak; person, topical cream or ointment with 1% CPDS by weight) was “dissipated immediately”, the recurrence of symptoms (poison oak; topical 1% CPDS by weight) was “did not recur” and the redness and swelling (poison oak; topical 1% CPDS by weight) was “disappeared in about one week”. For the same compound, the “spread of rash to other parts of the body” value (poison oak; topical 1% CPDS by weight) was “did not spread”, the “secretion of IP-10” value (IP-10) was “decrease” and the “neutralization of production of IL-1β in human cells” value (IL-1β; 25 μM) was “near neutralization”. The “Ave IL-Ib 1/10 Avg” value (IL-1β; [1]) was 0.19 ng/mL, the “Ave IL-Ib 1/10 Rep 1” value (IL-1β; [1]) was 0.19 ng/mL and the “Ave IL-Ib 1/10 Rep 2” value (IL-1β; [1]) was 0.18 ng/mL. The “Ave IL-Ib 2/28 Rep 1” value (IL-1β; [1]) was 0.32 ng/mL, the “Ave IL-Ib 2/28 Rep 2” value (IL-1β; [1]) was 0.29 ng/mL and the “Ave IL-Ib 2/28 Rep 3” value (IL-1β; [1]) was 0.30 ng/mL. The “IL-1β Relative %” value (IL-1β; [1]) was 114.2%, the “Ave IL-Ib 1/10 Avg” value (IL-1β; [2]) was 0.19 ng/mL and the “Ave IL-Ib 1/10 Rep 1” value (IL-1β; [2]) was 0.21 ng/mL. The “Ave IL-Ib 1/10 Rep 2” value (IL-1β; [2]) was 0.17 ng/mL, the “Ave IL-Ib 2/28 Rep 1” value (IL-1β; [2]) was 0.30 ng/mL and the “Ave IL-Ib 2/28 Rep 2” value (IL-1β; [2]) was 0.26 ng/mL. For the same compound, the “Ave IL-Ib 2/28 Rep 3” value (IL-1β; [2]) was 0.28 ng/mL, the “IL-1β Relative %” value (IL-1β; [2]) was 105.2% and the “Ave IL-Ib 1/10 Avg” value (IL-1β; [3]) was 0.15 ng/mL. For the same compound, the “Ave IL-Ib 1/10 Rep 1” value (IL-1β; [3]) was 0.15 ng/mL, the “Ave IL-Ib 1/10 Rep 2” value (IL-1β; [3]) was 0.14 ng/mL and the “Ave IL-Ib 2/28 Rep 1” value (IL-1β; [3]) was 0.23 ng/mL. The “Ave IL-Ib 2/28 Rep 2” value (IL-1β; [3]) was 0.24 ng/mL, the “Ave IL-Ib 2/28 Rep 3” value (IL-1β; [3]) was 0.24 ng/mL and the “IL-1β Relative %” value (IL-1β; [3]) was 88.7%. For the same compound, the “Ave IL-Ib 1/10 Avg” value (IL-1β; [4]) was 0.08 ng/mL, the “Ave IL-Ib 1/10 Rep 1” value (IL-1β; [4]) was 0.09 ng/mL and the “Ave IL-Ib 1/10 Rep 2” value (IL-1β; [4]) was 0.06 ng/mL. For the same compound, the “Ave IL-Ib 2/28 Rep 1” value (IL-1β; [4]) was 0.13 ng/mL, the “Ave IL-Ib 2/28 Rep 2” value (IL-1β; [4]) was 0.11 ng/mL and the “Ave IL-Ib 2/28 Rep 3” value (IL-1β; [4]) was 0.12 ng/mL. For the same compound, the “IL-1β Relative %” value (IL-1β; [4]) was 45.8%, the “Ave IL-Ib 1/10 Avg” value (IL-1β; [5]) was 0.04 ng/mL and the “Ave IL-Ib 1/10 Rep 1” value (IL-1β; [5]) was 0.05 ng/mL. For the same compound, the “Ave IL-Ib 1/10 Rep 2” value (IL-1β; [5]) was 0.03 ng/mL, the “Ave IL-Ib 2/28 Rep 1” value (IL-1β; [5]) was 0.04 ng/mL and the “Ave IL-Ib 2/28 Rep 2” value (IL-1β; [5]) was 0.03 ng/mL. For the same compound, the “Ave IL-Ib 2/28 Rep 3” value (IL-1β; [5]) was 0.04 ng/mL, the “IL-1β Relative %” value (IL-1β; [5]) was 13.7% and the “Ave IL-Ib 1/10 Avg” value (IL-1β; [6]) was 0.01 ng/mL. For the same compound, the “Ave IL-Ib 1/10 Rep 1” value (IL-1β; [6]) was 0.01 ng/mL, the “Ave IL-Ib 1/10 Rep 2” value (IL-1β; [6]) was 0.01 ng/mL and the “Ave IL-Ib 2/28 Rep 1” value (IL-1β; [6]) was 0.02 ng/mL. The “Ave IL-Ib 2/28 Rep 2” value (IL-1β; [6]) was 0.01 ng/mL, the “Ave IL-Ib 2/28 Rep 3” value (IL-1β; [6]) was 0.02 ng/mL and the “IL-1β Relative %” value (IL-1β; [6]) was 6.1%. For the same compound, the “Ave IL-Ib 1/10 Avg” value (IL-1β; [7]) was 0.01 ng/mL, the “Ave IL-Ib 1/10 Rep 1” value (IL-1β; [7]) was 0.01 ng/mL and the “Ave IL-Ib 1/10 Rep 2” value (IL-1β; [7]) was 0.01 ng/mL. The “Ave IL-Ib 2/28 Rep 1” value (IL-1β; [7]) was 0.03 ng/mL, the “Ave IL-Ib 2/28 Rep 2” value (IL-1β; [7]) was 0.01 ng/mL and the “Ave IL-Ib 2/28 Rep 3” value (IL-1β; [7]) was 0.02 ng/mL. The “IL-1β Relative %” value (IL-1β; [7]) was 8.2%, the “Ave IL-Ib 1/10 Avg” value (IL-1β; [8]) was 0.01 ng/mL and the “Ave IL-Ib 1/10 Rep 1” value (IL-1β; [8]) was 0.01 ng/mL. For the same compound, the “Ave IL-Ib 1/10 Rep 2” value (IL-1β; [8]) was 0.01 ng/mL, the “Ave IL-Ib 2/28 Rep 1” value (IL-1β; [8]) was 0.02 ng/mL and the “Ave IL-Ib 2/28 Rep 2” value (IL-1β; [8]) was 0.02 ng/mL. The “Ave IL-Ib 2/28 Rep 3” value (IL-1β; [8]) was 0.02 ng/mL, the “IL-1β Relative %” value (IL-1β; [8]) was 6.8% and the “ability of IFN-γ to stimulate the production of IL-1β” value (IL-1β; FIG. 1, clinically obtainable levels of CPDS) was “markedly reduce”. The “levels of IL-1β” value (IL-1β; FIG. 2, in the presence of LPS) was “substantially reduce”, the “secretion of IL-1β blocked” value (IL-1β; concentration as low as 50 uM CPDS) was 94% and the “neutralization of IL-1β” value (IL-1β; concentrations of 12.5 to 200 μM) was “complete neutralization”. For the same compound, the “reduction of measured IL-1β levels” value (IL-1β; concentrations of 12.5 to 200 μM, both tests) was 92-99%, the “neutralization of production of IL-1β in human cells” value (IL-1β; concentrations ranging from 50-200 μM) was “completely neutralize” and the “IL-6 levels / expression” value (IL-6; FIG. 3, macrophages inflamed by LPS, dosage series of CPDS) was “dramatically reduced; also recorded: concentration dependent diminution”. The “expression level of IL-6” value (IL-6; macrophages, CPDS (e.g., 50 μM) 90 minutes before LPS (10 ug/ml), 24 to 48 hours) was “dramatically reduced”, the “activity on IL-6 compared with DEX” value (IL-6; murine RAW 264.7 cells, LPS) was “more active” and the “secretion of IL-6” value (IL-6; murine RAW 264.7 cells, pre-treatment prior to LPS) was “drastically reduced”. For the same compound, the “growth of polyps at check-up visits” value (colonic polyps) was “no new growth”.
